The experiment concerns HIV-IIIb. Description: Antiviral assay in MT4 cells. The format is cell-based. The following applies: Human immunodeficiency virus 1, MT4, 120 h; MT-4 cells mixed with HIV-IIIb at m.o.i. 0.003; 5 days at 37° C.; CellTiter-Glo luminescence; 50% decrease in signal, a measure of HIV-1 replication. The method in brief: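 MT-4 cells were infected with HIV-IIIb at m.o.i. 0.003 for 1 hour, then added to 3-fold serially diluted compound (10 concentrations, quadruplicate) in medium with 10% FBS. After 5 days at 37° C, cell viability was read by CellTiter-Glo chemiluminescence.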

`CC1(O)CN(c2nc3nc([C@H](Cc4cc(F)cc(F)c4)NC(=O)Cn4nc(C(F)F)c5c4C(F)(F)CCC5(F)F)c(-c4ccc(F)c(C(N)=O)c4)cc3s2)C1` [Compound 11, (S)-5-(5-(1-(2-(3-(difluoromethyl)-4,4,7,7-tetrafluoro-4,5,6,7-tetrahydro-1H-indazol-1-yl)acetamido)-2-(3,5-difluorophenyl)ethyl)-2-(3-hydroxy-3-methylazetidin-1-yl)thiazolo[4,5-b]pyridin-6-yl)-2-fluorobenzamide]: the EC50 (as a rule, the concentration needed to bring the measured effect to its halfway point) was 0.162 µM.
Then `CN(C)CCNc1nc2nc(C(Cc3cc(F)cc(F)c3)NC(=O)Cn3nc(C(F)F)c4c3C(F)(F)CCC4(F)F)c(-c3ccc(F)c(C#N)c3)cc2s1` (stereo not shown) [Compound 21, N-(1-(6-(3-cyano-4-fluorophenyl)-2-((2-(dimethylamino)ethyl)amino)thiazolo[4,5-b]pyridin-5-yl)-2-(3,5-difluorophenyl)ethyl)-2-(3-(difluoromethyl)-4,4,7,7-tetrafluoro-4,5,6,7-tetrahydro-1H-indazol-1-yl)acetamide], with at least 53.2 µM; and `Cn1nc(N)c2c(Cl)ccc(-c3cc4sc(NCC(C)(C)O)nc4nc3[C@H](Cc3cc(F)cc(F)c3)NC(=O)Cn3nc(C(F)(F)F)c4c3C(F)(F)[C@@H]3C[C@H]43)c21` [Example 115, N—((S)-1-(6-(3-amino-4-chloro-1-methyl-1H-indazol-7-yl)-2-((2-hydroxy-2-methylpropyl)amino)thiazolo[4,5-b]pyridin-5-yl)-2-(3,5-difluorophenyl)ethyl)-2-((3bS,4aR)-5,5-difluoro-3-(trifluoromethyl)-3b,4,4a,5-tetrahydro-1H-cyclopropa[3,4]cyclopenta[1,2-c]pyrazol-1-yl)acetamide], with 0.007 µM; and `NC(=O)c1cc(-c2cc3sc(N4CCN(c5cncnc5)CC4)nc3nc2[C@H](Cc2cc(F)cc(F)c2)NC(=O)Cn2nc(C(F)(F)F)c3c2C(F)(F)[C@@H]2C[C@H]32)ccc1F` [Compound 25, 5-(5-((S)-1-(2-((3bS,4aR)-5,5-difluoro-3-(trifluoromethyl)-3b,4,4a,5-tetrahydro-1H-cyclopropa[3,4]cyclopenta[1,2-c]pyrazol-1-yl)acetamido)-2-(3,5-difluorophenyl)ethyl)-2-(4-(pyrimidin-5-yl)piperazin-1-yl)thiazolo[4,5-b]pyridin-6-yl)-2-fluorobenzamide], with 0.111 µM.
Compound `C[C@H]1CN(c2nc3nc([C@H](Cc4cc(F)cc(F)c4)NC(=O)Cn4nc(C(F)(F)F)c5c4C(F)(F)[C@@H]4C[C@H]54)c(-c4cccc5c(NS(C)(=O)=O)nn(C)c45)cc3s2)CCN1` [Example 88, 2-((3bS,4aR)-5,5-difluoro-3-(trifluoromethyl)-3b,4,4a,5-tetrahydro-1H-cyclopropa[3,4]cyclopenta[1,2-c]pyrazol-1-yl)-N—((S)-2-(3,5-difluorophenyl)-1-(6-(1-methyl-3-(methylsulfonamido)-1H-indazol-7-yl)-2-((S)-3-methylpiperazin-1-yl)thiazolo[4,5-b]pyridin-5-yl)ethyl)acetamide] gave an EC50 of 0.0103 µM.
Then `O=C(Cn1nc(C(F)F)c2c1C(F)(F)[C@@H]1C[C@H]21)N[C@@H](Cc1cc(F)cc(F)c1)c1ccc2sc(-c3ccc4c(c3)C(=O)NC4)nc2n1` [Compound 23-1, 2-((3bS,4aR)-3-(difluoromethyl)-5,5-difluoro-3b,4,4a,5-tetrahydro-1H-cyclopropa[3,4]cyclopenta[1,2-c]pyrazol-1-yl)-N—((S)-2-(3,5-difluorophenyl)-1-(2-(3-oxoisoindolin-5-yl)thiazolo[4,5-b]pyridin-5-yl)ethyl)acetamide], with 1.93 µM; and `NC(=O)c1cc(-c2cc3sc(N4CCN(c5ccncc5)CC4)nc3nc2[C@H](Cc2cc(F)cc(F)c2)NC(=O)Cn2nc(C(F)(F)F)c3c2C(F)(F)[C@@H]2C[C@H]32)ccc1F` [Compound 26, 5-(5-((S)-1-(2-((3bS,4aR)-5,5-difluoro-3-(trifluoromethyl)-3b,4,4a,5-tetrahydro-1H-cyclopropa[3,4]cyclopenta[1,2-c]pyrazol-1-yl)acetamido)-2-(3,5-difluorophenyl)ethyl)-2-(4-(pyridin-4-yl)piperazin-1-yl)thiazolo[4,5-b]pyridin-6-yl)-2-fluorobenzamide], with 0.114 µM.
Then `O=C(Cn1nc(C(F)(F)F)c2c1C(F)(F)[C@@H]1C[C@H]21)N[C@@H](Cc1cc(F)cc(F)c1)c1nc2nc(N3CCN(C4COC4)CC3)sc2cc1-c1ccc2c(c1)C(=O)NC2` [Compound 38, 2-((3bS,4aR)-5,5-difluoro-3-(trifluoromethyl)-3b,4,4a,5-tetrahydro-1H-cyclopropa[3,4]cyclopenta[1,2-c]pyrazol-1-yl)-N—((S)-2-(3,5-difluorophenyl)-1-(2-(4-(oxetan-3-yl)piperazin-1-yl)-6-(3-oxoisoindolin-5-yl)thiazolo[4,5-b]pyridin-5-yl)ethyl)acetamide], with 0.0101 µM; and `N#Cc1cc(-c2cc3scnc3nc2[C@H](Cc2cc(F)cc(F)c2)NC(=O)Cn2nc(C(F)F)c3c2C(F)(F)CCC3(F)F)ccc1F` [Compound 15E, (S)—N-(1-(6-(3-cyano-4-fluorophenyl)thiazolo[4,5-b]pyridin-5-yl)-2-(3,5-difluorophenyl)ethyl)-2-(3-(difluoromethyl)-4,4,7,7-tetrafluoro-4,5,6,7-tetrahydro-1H-indazol-1-yl)acetamide], with 2.64 µM; and `Cn1nc(NS(C)(=O)=O)c2cccc(-c3cc4[nH]c(C5CC5)nc4nc3[C@H](Cc3cc(F)cc(F)c3)NC(=O)Cn3nc(C(F)F)c4c3C(F)(F)[C@@H]3C[C@H]43)c21` [Example 93, N—((S)-1-(2-cyclopropyl-6-(1-methyl-3-(methylsulfonamido)-1H-indazol-7-yl)-1H-imidazo[4,5-b]pyridin-5-yl)-2-(3,5-difluorophenyl)ethyl)-2-((3bS,4aR)-3-(difluoromethyl)-5,5-difluoro-3b,4,4a,5-tetrahydro-1H-cyclopropa[3,4]cyclopenta[1,2-c]pyrazol-1-yl)acetamide], with 0.0111 µM.
`CN(C)C1CN(c2nc3nc([C@H](Cc4cc(F)cc(F)c4)NC(=O)Cn4nc(C(F)(F)F)c5c4C(F)(F)[C@@H]4C[C@H]54)c(-c4cccc5c(NS(C)(=O)=O)nn(C)c45)cc3s2)C1` [Compound 150, 2-((3bS,4aR)-5,5-difluoro-3-(trifluoromethyl)-3b,4,4a,5-tetrahydro-1H-cyclopropa[3,4]cyclopenta[1,2-c]pyrazol-1-yl)-N—((S)-2-(3,5-difluorophenyl)-1-(2-(3-(dimethylamino)azetidin-1-yl)-6-(1-methyl-3-(methylsulfonamido)-1H-indazol-7-yl)thiazolo[4,5-b]pyridin-5-yl)ethyl)acetamide] showed an EC50 of 0.008 µM. The EC50 values of the last two compounds are within 1.5-fold of each other.
The compound `Cn1nc(NS(C)(=O)=O)c2cccc(-c3cc4sc(N5CC(C(N)=O)C5)nc4nc3[C@H](Cc3cc(F)cc(F)c3)NC(=O)Cn3nc(C(F)(F)F)c4c3C(F)(F)[C@@H]3C[C@H]43)c21` [Example 73, 1-(5-((S)-1-(2-((3bS,4aR)-5,5-difluoro-3-(trifluoromethyl)-3b,4,4a,5-tetrahydro-1H-cyclopropa[3,4]cyclopenta[1,2-c]pyrazol-1-yl)acetamido)-2-(3,5-difluorophenyl)ethyl)-6-(1-methyl-3-(methylsulfonamido)-1H-indazol-7-yl)thiazolo[4,5-b]pyridin-2-yl)azetidine-3-carboxamide] gave an EC50 of 0.0677 µM.
`CN(C)CCNc1nc2nc(C(Cc3cc(F)cc(F)c3)NC(=O)Cn3nc(C(F)F)c4c3C(F)(F)CCC4(F)F)c(-c3ccc(F)c(C(N)=O)c3)cc2s1` (stereo not shown) [Compound 20, 5-(5-(1-(2-(3-(difluoromethyl)-4,4,7,7-tetrafluoro-4,5,6,7-tetrahydro-TH-indazol-1-yl)acetamido)-2-(3,5-difluorophenyl)ethyl)-2-((2-(dimethylamino)ethyl)amino)thiazolo[4,5-b]pyridin-6-yl)-2-fluorobenzamide] displayed an EC50 of 0.303 µM.
Take `Cn1nc(NS(C)(=O)=O)c2cccc(-c3cc4sc(N5CCC(C)(O)CC5)nc4nc3C(Cc3cc(F)cc(F)c3)NC(=O)Cn3nc(C(F)(F)F)c4c3C(F)(F)[C@@H]3C[C@H]43)c21` (stereo partly drawn) [Example 124, 2-((3bS,4aR)-5,5-difluoro-3-(trifluoromethyl)-3b,4,4a,5-tetrahydro-1H-cyclopropa[3,4]cyclopenta[1,2-c]pyrazol-1-yl)-N-(2-(3,5-difluorophenyl)-1-(2-(4-hydroxy-4-methylpiperidin-1-yl)-6-(1-methyl-3-(methylsulfonamido)-1H-indazol-7-yl)thiazolo[4,5-b]pyridin-5-yl)ethyl)acetamide]: the EC50 was found to be 0.0136 µM.
`NC(=O)c1cc(-c2nc3nc(C(Cc4cc(F)cc(F)c4)NC(=O)Cn4nc(C(F)(F)F)c5c4C(F)(F)[C@@H]4C[C@H]54)c(-c4ccc(F)c(C(N)=O)c4)cc3s2)ccc1F` (stereo partly drawn) [Example 117, 5,5′-(5-(1-(2-((3bS,4aR)-5,5-difluoro-3-(trifluoromethyl)-3b,4,4a,5-tetrahydro-1H-cyclopropa[3,4]cyclopenta[1,2-c]pyrazol-1-yl)acetamido)-2-(3,5-difluorophenyl)ethyl)thiazolo[4,5-b]pyridine-2,6-diyl)bis(2-fluorobenzamide)] came in with an EC50 of 0.0935 µM.
In turn, `Cn1nc(NS(=O)(=O)C2CC2)c2cccc(-c3cc4sc(NCC(C)(C)O)nc4nc3[C@H](Cc3cc(F)cc(F)c3)NC(=O)Cn3nc(C(F)F)c4c3C(F)(F)[C@@H]3C[C@H]43)c21` [Compound 62, N—((S)-1-(6-(3-(cyclopropanesulfonamido)-1-methyl-1H-indazol-7-yl)-2-((2-hydroxy-2-methylpropyl)amino)thiazolo[4,5-b]pyridin-5-yl)-2-(3,5-difluorophenyl)ethyl)-2-((3bS,4aR)-3-(difluoromethyl)-5,5-difluoro-3b,4,4a,5-tetrahydro-1H-cyclopropa[3,4]cyclopenta[1,2-c]pyrazol-1-yl)acetamide] displayed an EC50 of 0.0079 µM.

For the origin of these results see US12077537B2 (Gilead Sciences, Inc., priority 2020, dated 2024).
